The supplement of paper PMC10331698
± gives the standard deviation of the averaged measurements.

What was measured:
Test in all cases: level (log10 ratio to DMSO vehicle control); higher = higher biomarker level / cell amount than vehicle control
[1] = compound: O=C(O)C(F)(F)C(F)(F)C(F)F [4H-Perfluorobutanoic acid]; conditions: in DMSO
Experimental: (§1)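 BioMAP Diversity Plus panel of 12 human primary cell co-culture systems (3C, 4H, LPS, SAg, BT, BF4T, BE3C, CASM3C, HDF3CGF, KF3CT, MyoF, Mphg). Compounds were added 1 h before stimulation and left for 24 h (MyoF 48 h; BT 72 h for soluble read-outs or 6 d for IgG). Biomarkers were read by ELISA, cytotoxicity by SRB, PBMC viability and proliferation by Alamar Blue. Each well value was divided by the mean of 8 DMSO control wells on the same plate and log10 transformed; duplicate blinded samples were tested at 4 concentrations.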

[2] = compound: C=CC(F)(F)C(F)(F)C(F)(F)C(F)(F)C(F)(F)C(F)(F)C(F)(F)C(F)(F)C=C [1,8-Divinylperfluorooctane]; conditions: in DMSO
Experimental: as §1

[3] = compound: FC(F)C(F)(F)COCC1CO1 [((2,2,3,3-Tetrafluoropropoxy)methyl)oxirane]; conditions: in DMSO
Experimental: as §1

[4] = compound: OCCC(F)(F)C(F)(F)C(F)(F)C(F)(F)C(F)(F)C(F)(F)F [6:2 Fluorotelomer alcohol]; conditions: in DMSO
Experimental: as §1

[5] = compound: OCCCC(F)(F)C(F)(F)C(F)(F)C(F)(F)C(F)(F)C(F)(F)C(F)(F)F [7:3 Fluorotelomer alcohol]; conditions: 6700 nM; in DMSO
Experimental: as §1

[6] = compound: FC(F)(F)C(F)(C(F)(F)F)C(F)(F)C(F)(F)CC1CO1 [3-(Perfluoro-3-methylbutyl)-1,2-propenoxide]; conditions: in DMSO
Experimental: as §1

[7] = compound: O=C(O)C(F)(F)C(F)(F)OC(F)(F)F [Perfluoro-3-methoxypropanoic acid]; conditions: in DMSO
Experimental: as §1

Test System	level (log10) ([1]; 6700 nM)	level (log10) ([1]; 20000 nM)	level (log10) ([1]; 60000 nM)	level (log10) ([2]; 6700 nM)	level (log10) ([2]; 20000 nM)	level (log10) ([3]; 6700 nM)	level (log10) ([3]; 20000 nM)	level (log10) ([3]; 60000 nM)	level (log10) ([4]; 6700 nM)	level (log10) ([4]; 20000 nM)	level (log10) [5]	level (log10) ([6]; 6700 nM)	level (log10) ([6]; 20000 nM)	level (log10) ([7]; 6700 nM)	level (log10) ([7]; 20000 nM)	level (log10) ([7]; 60000 nM)
HDF3CGF:M-CSF	-0.0305 ± 0.035	-0.013 ± 0.033	-0.015 ± 0.041	-0.0335 ± 0.042	-0.0085 ± 0.053	0.009	-0.001 ± 0.033	-0.001 ± 0.013	-0.009 ± 0.0099	-0.0075 ± 0.0021	0.0035 ± 0.044	-0.0115 ± 0.018	-0.0145 ± 0.012	-0.005 ± 0.0085	-0.0035 ± 0.0021	-0.005 ± 0.0085
CASM3C:CXCL8/IL-8	-0.003 ± 0.0057	0.004 ± 0.0042	0.0135 ± 0.033	-0.017 ± 0.011	-0.0145 ± 0.015	-0.003 ± 0.0085	-0.0195 ± 0.028	0.0215 ± 0.032	0.019 ± 0.0014	0.0195 ± 0.015	-0.0145 ± 0.005	-0.0065 ± 0.005	-0.003 ± 0.0014	0.0045 ± 0.03	0.006 ± 0.03	0.033 ± 0.0028
HDF3CGF:EGFR	-0.0155 ± 0.054	0.0005 ± 0.019	0.0725 ± 0.12	0.033	0.005 ± 0.041	0.012 ± 0.014	0.0065 ± 0.005	0.029 ± 0.041	0.0005 ± 0.012	0.006 ± 0.0099	-0.005 ± 0.12	-0.015 ± 0.0028	0.0035 ± 0.023	-0.002 ± 0.0085	0.003 ± 0.0085	0.0165 ± 0.029
CASM3C:CXCL9/MIG	-0.0035 ± 0.028	0.0125 ± 0.00071	0.032 ± 0.017	-0.013 ± 0.0085	-0.0115 ± 0.011	0.002 ± 0.0085	-0.009 ± 0.02	0.014 ± 0.062	-0.011 ± 0.025	-0.0165 ± 0.0035	-0.0125 ± 0.0035	-0.015 ± 0.014	-0.001 ± 0.017	-0.0175 ± 0.0078	0.0065 ± 0.005	0.027 ± 0.024
MyoF:PAI-I	-0.0105 ± 0.019	-0.023 ± 0.023	-0.0095 ± 0.011	0.003 ± 0.0071	0.006 ± 0.0071	-0.008 ± 0.0028	-0.002 ± 0.0085	-0.0115 ± 0.0064	0.002 ± 0.0028	0.007 ± 0.0042	0.0015 ± 0.0035	-0.0015 ± 0.013	-0.0035 ± 0.015	0.0045 ± 0.016	-0.001 ± 0.0014	0.0025 ± 0.0035
lMphg:IL-1alpha	-0.0055 ± 0.0064	-0.0355 ± 0.0064	0.017 ± 0.035	0.003 ± 0.027	0.046 ± 0.034	-0.004 ± 0.017	-0.039 ± 0.035	-0.0235 ± 0.033	0.0025 ± 0.022	0.019 ± 0.0085	0.017 ± 0.028	-0.038 ± 0.042	0.034 ± 0.085	-0.008 ± 0.03	-0.0055 ± 0.033	0.0115 ± 0.005
lMphg:CD40	0.0065 ± 0.028	-0.0035 ± 0.039	0.007 ± 0.024	-0.04 ± 0.0099	-0.0195 ± 0.032	0.0185 ± 0.061	0.0195 ± 0.029	0.0015 ± 0.011	-0.029 ± 0.0057	-0.0435 ± 0.025	-0.0135 ± 0.0078	-0.0105 ± 0.028	-0.021 ± 0.011	-0.0295 ± 0.03	-0.0165 ± 0.0021	-0.0225 ± 0.04
KF3CT:uPA	0.0125 ± 0.028	0.0275 ± 0.0064	0.007 ± 0.035	-0.0185 ± 0.0035	-0.0185 ± 0.028	0.0015 ± 0.0092	-0.0045 ± 0.032	-0.0005 ± 0.015	-0.015 ± 0.023	-0.0055 ± 0.015	-0.0075 ± 0.0064	-0.0045 ± 0.0021	-0.021 ± 0.017	0 ± 0.018	-0.0055 ± 0.012	0.002 ± 0.0085
HDF3CGF:Collagen I	-0.0445 ± 0.028	-0.024 ± 0.072	0.0525 ± 0.029	0.043 ± 0.054	0.0595 ± 0.016	-0.03 ± 0.0042	-0.038 ± 0.013	0.022 ± 0.11	-0.036 ± 0.057	-0.0445 ± 0.08	-0.0325 ± 0.046	0.003 ± 0.078	-0.0135 ± 0.15	-0.0095 ± 0.07	-0.0085 ± 0.052	0.058 ± 0.025
KF3CT:CXCL9/MIG	-0.004 ± 0.016	-0.011 ± 0.011	-0.007 ± 0.0071	-0.002 ± 0.0042	-0.0015 ± 0.011	0.007 ± 0.0085	-0.002 ± 0.0099	0.0055 ± 0.0078	0.0045 ± 0.0035	0.009	0.0015 ± 0.005	0.005 ± 0.014	0.001 ± 0.013	0.0125 ± 0.0064	0.008 ± 0.0099	0.021 ± 0.0014
KF3CT:TIMP-2	0.002 ± 0.031	-0.011 ± 0.016	0.004 ± 0.0099	-0.021 ± 0.021	-0.0205 ± 0.032	-0.0135 ± 0.016	-0.0115 ± 0.019	-0.0045 ± 0.026	0.0005 ± 0.016	0.0015 ± 0.015	-0.0005 ± 0.028	-0.003 ± 0.0042	0.0015 ± 0.042	-0.0045 ± 0.025	0.0075 ± 0.035	0.004 ± 0.016
CASM3C:PAI-I	0.009 ± 0.0071	0.006 ± 0.0071	0.0075 ± 0.0021	-0.0015 ± 0.00071	0.004 ± 0.0028	-0.0035 ± 0.0021	-0.001 ± 0.011	0.0065 ± 0.011	0.0105 ± 0.00071	0.005 ± 0.0057	-0.005 ± 0.0014	-0.0025 ± 0.0021	0.0045 ± 0.011	0.0015 ± 0.022	0.004 ± 0.013	0.0095 ± 0.0078
HDF3CGF:CD106/VCAM-1	-0.0385 ± 0.018	-0.0525 ± 0.022	-0.0445 ± 0.096	-0.028 ± 0.021	-0.016 ± 0.017	-0.001 ± 0.016	-0.0075 ± 0.023	-0.0295 ± 0.037	-0.0175 ± 0.063	-0.0145 ± 0.042	-0.0795 ± 0.005	-0.0045 ± 0.012	-0.0245 ± 0.025	-0.008 ± 0.02	0.0165 ± 0.052	-0.0005 ± 0.036
CASM3C:Proliferation	0.0045 ± 0.011	-0.0185 ± 0.066	0.0045 ± 0.04	-0.018 ± 0.027	0.0305 ± 0.013	-0.0215 ± 0.011	-0.001 ± 0.014	0.0145 ± 0.032	-0.004 ± 0.021	-0.0205 ± 0.023	0.052 ± 0.0057	-0.001 ± 0.047	0.0195 ± 0.071	-0.024 ± 0.023	-0.0095 ± 0.029	-0.0075 ± 0.025
lMphg:CD62E/E-Selectin	-0.012 ± 0.0028	0.0025 ± 0.0092	0.0145 ± 0.0064	-0.006 ± 0.024	-0.054 ± 0.038	-0.0155 ± 0.0064	-0.0195 ± 0.029	-0.035 ± 0.011	-0.0545 ± 0.011	0.0005 ± 0.043	-0.005 ± 0.048	0.0085 ± 0.019	0.0025 ± 0.013	-0.012 ± 0.018	-0.037 ± 0.03	0.019 ± 0.075
BE3C:PAI-I	-0.0235 ± 0.025	-0.014 ± 0.038	-0.0175 ± 0.023	0.016 ± 0.017	0.016 ± 0.016	-0.0145 ± 0.028	-0.015 ± 0.034	-0.011 ± 0.018	-0.0205 ± 0.03	-0.025 ± 0.048	-0.0545 ± 0.049	-0.0175 ± 0.0035	-0.0075 ± 0.013	-0.012 ± 0.0057	-0.009 ± 0.018	0.012 ± 0.0014
lMphg:M-CSF	-0.0115 ± 0.005	-0.015 ± 0.0028	-0.0175 ± 0.0064	-0.0315 ± 0.005	0.0015 ± 0.039	-0.0155 ± 0.013	0 ± 0.024	-0.0265 ± 0.015	-0.0245 ± 0.0021	-0.0245 ± 0.013	-0.0205 ± 0.037	-0.0215 ± 0.021	-0.005 ± 0.02	-0.0075 ± 0.012	-0.025 ± 0.0071	-0.0025 ± 0.037
MyoF:alpha-SM Actin	-0.0335 ± 0.047	-0.0245 ± 0.049	-0.026 ± 0.034	-0.016 ± 0.0042	-0.0155 ± 0.028	-0.0185 ± 0.019	0.0015 ± 0.022	-0.0075 ± 0.03	-0.001 ± 0.018	0.0095 ± 0.026	0.0125 ± 0.0092	-0.009 ± 0.028	-0.0295 ± 0.0064	0.0015 ± 0.00071	0.011 ± 0.035	0.039 ± 0.0028
